According to article PMC9227586, “UHPLC-MS Metabolomic Fingerprinting, Antioxidant, and Enzyme Inhibition Activities of Himantormia lugubris from Antarctica” (Metabolites, 2022):
Where two headings read alike, the source gives them in different places. Marks after values point to notes of the source that are not given here.

Experiments:
DPPH scavenging activity = conditions: bleaching of DPPH at 515 nm after 30 min
Procedure: The potential bleaching of the radical DPPH, using a Synergy HTX microplate reader, was determined by mixing 50 µL of extract or standard with 150 µL of DPPH solution; the determinations were made in triplicate by monitoring the bleaching of DPPH at 515 nm after 30 min of reaction. The results are expressed as IC50 in µg of standard or extract per mL. The data are reported as the mean ± SD.

AChE = conditions: cited from earlier work
[1] = target: T1, acetylcholinesterase (AChE, EC 3.1.1.7) (Homo sapiens, UniProt P22303); test: biochemical; conditions: 37 °C
T1 construct: purchased Sigma (St. Louis, MO, USA)
Procedure: (§1) Inhibition of AChE activity was determined according to the Ellman method, as previously reported. The samples (2 mg/mL) were prepared by mixing tris-HCl buffer (50 mM, pH 8.0), enzyme solution (AChE or BChE), and 5-dithio-bis (2-nitrobenzoic acid) (DTNB) at pH 8.0. The reaction was started by adding acetyl-thiocholine iodide (ATCI) or butyryl-thiocholine chloride (BTCl). The absorbance of the extract was measured at 405 nm for 30 min at 37 °C. Three experiments were performed in triplicate in each test and the values are reported as the mean ± SD. The results were expressed as IC50 (µg/mL, the final concentration of the plate ranged from 0.05 to 25 μg/mL).

[2] = target: T2, butyrylcholinesterase (BChE, EC 3.1.1.8) (Homo sapiens, UniProt P06276); test: biochemical
T2 construct: purchased Sigma (St. Louis, MO, USA)
Procedure: as §1

BChE = conditions: cited from earlier work
[3] = Ferric-reducing antioxidant power assay (FRAP); conditions: absorbance at 593 nm after 5 min
Procedure: The FRAP test was performed as described previously. A standard curve of the antioxidant Trolox was plotted, then the measurement was performed with 290 µL of extract and its absorbance was measured at 593 nm after 5 min. The results were expressed in mg of Trolox equivalent per g of dry lichen. The experiments were performed in triplicate and the values are expressed as the mean ± SD.

[4] = Oxygen radical absorbance capacity (ORAC) assay
Procedure: The ORAC assay was performed as previously described. Quantification was performed using a standard curve of the antioxidant Trolox, then the measurement was performed using a solution of the Trolox, blank, and 40 µL of extract in different wells of the microplate reader. The results were obtained by constructing the equations (Trolox/samples vs. fluorescence decay curves) and expressed in μmol Trolox equivalents per grams of dry lichen. The tests were performed in triplicate and the results are reported as the mean ± SD.

tyrosinase = conditions: cited from earlier work
[5] = Ellman method, read-out: AChE IC50 (converted)
[6] = Ellman method, 37 °C, read-out: BChE IC50 (converted)

T2 sequence (P06276 29-602): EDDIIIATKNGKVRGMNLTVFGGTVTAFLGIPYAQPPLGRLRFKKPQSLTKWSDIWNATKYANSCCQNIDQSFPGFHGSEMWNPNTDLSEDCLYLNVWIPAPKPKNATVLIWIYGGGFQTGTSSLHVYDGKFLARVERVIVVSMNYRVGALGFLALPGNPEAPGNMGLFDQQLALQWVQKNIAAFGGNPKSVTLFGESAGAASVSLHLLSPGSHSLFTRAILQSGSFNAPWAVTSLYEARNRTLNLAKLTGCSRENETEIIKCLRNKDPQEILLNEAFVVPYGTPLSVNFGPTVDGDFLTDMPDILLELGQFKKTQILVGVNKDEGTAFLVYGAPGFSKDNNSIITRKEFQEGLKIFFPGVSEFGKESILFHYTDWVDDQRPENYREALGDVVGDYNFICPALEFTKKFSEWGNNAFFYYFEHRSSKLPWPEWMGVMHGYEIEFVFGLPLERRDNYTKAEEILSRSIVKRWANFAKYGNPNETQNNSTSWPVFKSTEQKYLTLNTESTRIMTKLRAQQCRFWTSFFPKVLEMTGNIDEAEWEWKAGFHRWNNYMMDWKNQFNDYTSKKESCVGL
T1 sequence (P22303 32-614, species assumed): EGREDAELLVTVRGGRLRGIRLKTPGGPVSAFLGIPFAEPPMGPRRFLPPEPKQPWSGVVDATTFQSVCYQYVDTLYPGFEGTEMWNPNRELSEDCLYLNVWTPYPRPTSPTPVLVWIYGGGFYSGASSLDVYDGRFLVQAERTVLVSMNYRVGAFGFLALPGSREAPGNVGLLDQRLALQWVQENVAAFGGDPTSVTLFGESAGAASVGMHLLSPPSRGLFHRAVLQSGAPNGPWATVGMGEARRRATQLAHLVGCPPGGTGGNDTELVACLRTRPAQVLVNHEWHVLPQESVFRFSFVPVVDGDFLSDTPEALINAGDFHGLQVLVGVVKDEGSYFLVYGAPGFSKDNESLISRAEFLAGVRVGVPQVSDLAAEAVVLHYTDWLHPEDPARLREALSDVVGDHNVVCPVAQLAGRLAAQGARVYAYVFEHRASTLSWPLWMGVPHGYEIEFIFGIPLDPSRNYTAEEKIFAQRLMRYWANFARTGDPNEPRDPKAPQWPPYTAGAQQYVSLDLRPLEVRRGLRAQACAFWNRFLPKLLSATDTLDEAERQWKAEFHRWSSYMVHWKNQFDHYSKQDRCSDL

SMILES	DPPH antiradical activity (IC50) (DPPH scavenging activity)	FRAP [3]	ORAC [4]	IC50 [1, 5]	IC50 [2, 6]	other results
CC(=O)c1c(O)c(C)c(O)c2c1OC1=CC(=O)C(C(C)=O)C(=O)C12C (stereo not drawn) [Usnic acid]	55.25 ± 0.04 µg/mL	22.4 ± 0.00 μmol Trolox/g lichen	122.73 ± 1.0 μmol Trolox/g lichen	–	–	IC50 (AChE; reported previously): 0.00127 µM; IC50 ([1]; AChE IC50, Ellman method): 6.42 µM; IC50 [2]: 12.7 µM; IC50 (BChE; reported previously): 0.0034 µM
C[C@@H]1O[C@@H](O[C@@H]2C(=O)c3c(O)cc(O)cc3O[C@@H]2c2ccc(O)c(O)c2)[C@H](O)[C@H](O)[C@H]1O [isoastilbin]	–	–	–	–	–	AChE inhibition (AChE; at 2.2 µM): 51.70%; BChE inhibition (BChE; at 2.2 µM): 50.10%
Cc1cc(OC(=O)c2c(C)cc(O)cc2O)cc(O)c1C(=O)O [lecanoric acid]	–	–	–	–	–	inhibition of tyrosinase activity (tyrosinase): 82.69%
Cc1c(O)cc2c(c1O)C(=O)OC2 [5,7-dihydroxy-6-methylphthalide]	12.52 ± 0.02 µg/mL	36.91 ± 0.0 μmol Trolox/g lichen	373.65 ± 1.05 μmol Trolox/g lichen	70.5 µM	108 µM	–
O=C(O)c1cc(O)c(O)c(O)c1 [Gallic acid, reference compound]	2.24 ± 0.04 µg/mL	45.5 ± 0.00 μmol Trolox/g lichen	–	–	–	–
Cc1cc(O)c(C=O)c(O)c1 [Atranol, atranol]	21.04 ± 0.02 µg/mL	29.32 ± 0.0 ^a μmol Trolox/g lichen	176.28 ± 0.84 μmol Trolox/g lichen	189 µM	239 µM	–
Cc1cc(O)c(C=O)c(O)c1C(=O)OCc1cc(O)c(C=O)c(O)c1C(=O)O [Barbatolic acid, barbatolic acid]	62.55 ± 0.01 µg/mL	28.10 ± 0.0 ^a μmol Trolox/g lichen	101.11 ± 0.71 μmol Trolox/g lichen	44.6 µM	61.4 µM	–
CC(=O)C1=C(O)C=C2Oc3c(C(C)=O)c(O)c(C)c(O)c3[C@@]2(C)C1=O [(+) usnic acid]	–	–	–	–	–	tyrosinase inhibition (tyrosinase; at the dose of 250 μg/mL): 9.1%
Cc1cc(O)c(C=O)c2c1C(=O)Oc1c(COC(=O)/C=C/C(=O)O)c(O)c(C(=O)O)c(C)c1O2 [fumarprotocetraric acid]	–	–	–	–	–	inhibition of tyrosinase activity (tyrosinase; at 0.6 mM): 39.8%
Cc1cc(O)cc(O)c1C(=O)O [orsellinic acid, 2,4-dihydroxy-6-methylbenzoic acid]	–	–	–	–	–	inhibition of tyrosinase activity (tyrosinase): 63.35%
